Numbering of substitutions follows the chain as printed. Where no end group is shown, it is not given here.
Key:
Experiment in all cases: Homologous whole cell competition binding
Conditions in all cases: homologous competition of 125I-sCT(8-32), whole cells, mean ± S.E.M., SEM
hCTR F356A = target: T1, hCTR F356A (Homo sapiens, UniProt P30988, F356A)
T1 construct: c-Myc (N); expressed in transfected cells
T1 sequence (P30988 25-474 F356A): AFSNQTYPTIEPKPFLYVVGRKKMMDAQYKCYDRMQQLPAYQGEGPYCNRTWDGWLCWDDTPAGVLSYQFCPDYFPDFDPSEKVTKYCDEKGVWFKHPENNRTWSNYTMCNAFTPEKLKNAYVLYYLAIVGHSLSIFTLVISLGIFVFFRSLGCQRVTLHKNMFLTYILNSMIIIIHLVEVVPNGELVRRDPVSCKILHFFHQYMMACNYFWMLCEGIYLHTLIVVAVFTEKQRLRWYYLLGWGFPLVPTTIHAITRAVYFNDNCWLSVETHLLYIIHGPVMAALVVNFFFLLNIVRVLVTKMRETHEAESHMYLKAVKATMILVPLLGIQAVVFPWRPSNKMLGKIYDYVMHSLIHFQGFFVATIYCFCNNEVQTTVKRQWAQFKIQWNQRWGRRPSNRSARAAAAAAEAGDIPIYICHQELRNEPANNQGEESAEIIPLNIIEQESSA
Protocol: (§1) Homologous radioligand competition was performed on 2.5 × 10^4 cells/well seeded into 96-well trays and cultured overnight. Cells were incubated overnight at 4 °C with two concentrations of ^125I-sCT(8-32) (between 25 and 100 pM; specific activity, 2000 Ci/mmol^9) and serial dilutions of non-iodinated sCT(8-32). Non-bound ligand was removed and bound ligand activity was measured using a γ counter (Wallac Wizard 1470 Gamma Counter, Perkin Elmer, 80% counter efficiency). Values were normalized against non-specific binding (0%) defined by the presence of 1 μM of unlabelled sCT(8-32), and total ligand bound in absence of competing sCT(8-32) (100%).
(§2) IC50 and Bmax values were estimated from competitive inhibition of ^125I-sCT(8-32) binding using a 3-parameter logistic equation (log(inhibitor versus response)) in Prism (v7; Graphpad). Data were corrected for radioligand occupancy using the Cheng-Prusoff equation in Prism; as such data are reported as pKi. Emax and EC50 were estimated from concentration-response curves using with a 3-parameter logistic equation in Prism (v7). These values are a composite of functional affinity, efficacy and stimulus response coupling. The Black and Leff operational model of agonism was applied to separate effects on pathway-specific efficacy (τ) from those that modify ligand functional affinity (pKA). Derived τ values were normalized to experimentally determined levels of cell surface expression to provide a measure of efficacy (τc) that is independent of affinity and altered cell surface receptor expression. pKi, pKA and log τc values for mutant receptors were statistically compared to those of the WT receptor using a one-way analysis of variance (ANOVA) and Dunnett’s post-test. Significance was accepted at P < 0.05.

hCTR I279A = target: T2, hCTR I279A (Homo sapiens, UniProt P30988, I279A)
T2 construct: expressed in transfected cells
T2 sequence (P30988 25-474 I279A): T1 sequence (P30988 25-474 F356A) with I255A, A332F
Protocol: as §1, §2

hCTR K366A = target: T3, hCTR K366A (Homo sapiens, UniProt P30988, K366A)
T3 construct: c-Myc (N); expressed in transfected cells
T3 sequence (P30988 25-474 K366A): T1 sequence (P30988 25-474 F356A) with A332F, K342A
Protocol: as §1, §2

hCTR P363A = target: T4, hCTR P363A (Homo sapiens, UniProt P30988, P363A)
T4 construct: expressed in transfected cells
T4 sequence (P30988 25-474 P363A): T1 sequence (P30988 25-474 F356A) with A332F, P339A
Protocol: as §1, §2

Ki (hCTR F356A): 0.141 nM
Ki (hCTR I279A): 0.191 nM
Ki (hCTR K366A): 0.195 nM
Ki (hCTR P363A): 0.355 nM
Substance: VLGKLSQELHKLQTYPRTNTGSGTP-NH2 [sCT(8-32)]

Source: PMC5908784, “Extracellular loops 2 and 3 of the calcitonin receptor selectively modify agonist binding and efficacy” (Biochemical Pharmacology, 2018)
